Laboratory results: ChEMBL document CHEMBL4261619, “Sentulic acid isolated from Sandoricum koetjape Merr attenuates lipopolysaccharide and interferon gamma co-stimulated nitric oxide production in murine macrophage RAW264 cells” (Bioorg Med Chem Lett, 2018)
The source made the active and inactive calls. No cut-off for these calls is given here.

Columns and labels:
[1] = target: T1, Toll-like receptor 4 (Mus musculus) (UniProt Q9QUK6); assay: Inhibition of LPS binding to TLR4 in IFNgamma-stimulated mouse RAW264.7 cells assessed as reduction in nitric oxide production at 25 to 100 uM pretreated for 2 hrs followed by LPS/IFNgamma stimulation and measured after 24 hrs; assay type: cell-based
T1 sequence (whole entry): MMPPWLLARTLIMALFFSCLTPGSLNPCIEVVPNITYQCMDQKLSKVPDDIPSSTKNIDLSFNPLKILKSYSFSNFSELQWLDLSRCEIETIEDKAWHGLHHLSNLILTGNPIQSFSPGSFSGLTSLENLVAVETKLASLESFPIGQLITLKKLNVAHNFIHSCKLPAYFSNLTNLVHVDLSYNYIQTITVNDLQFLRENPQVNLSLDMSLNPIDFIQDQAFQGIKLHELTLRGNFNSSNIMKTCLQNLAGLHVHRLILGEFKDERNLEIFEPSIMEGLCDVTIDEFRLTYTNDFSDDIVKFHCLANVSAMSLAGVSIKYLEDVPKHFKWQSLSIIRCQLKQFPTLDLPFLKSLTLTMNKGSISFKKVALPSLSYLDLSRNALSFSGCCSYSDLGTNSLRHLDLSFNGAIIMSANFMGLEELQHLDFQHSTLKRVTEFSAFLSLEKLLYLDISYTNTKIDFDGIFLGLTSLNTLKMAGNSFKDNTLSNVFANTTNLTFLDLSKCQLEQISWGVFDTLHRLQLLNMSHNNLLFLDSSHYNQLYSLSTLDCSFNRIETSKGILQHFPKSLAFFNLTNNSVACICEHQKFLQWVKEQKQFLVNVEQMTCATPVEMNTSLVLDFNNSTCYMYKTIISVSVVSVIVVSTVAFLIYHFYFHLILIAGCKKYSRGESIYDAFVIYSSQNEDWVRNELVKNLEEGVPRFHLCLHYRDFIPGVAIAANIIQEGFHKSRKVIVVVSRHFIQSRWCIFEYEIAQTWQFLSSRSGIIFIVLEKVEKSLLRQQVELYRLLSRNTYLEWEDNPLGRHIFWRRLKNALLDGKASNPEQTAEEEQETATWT

[2] = target: T1, Toll-like receptor 4 (Mus musculus); assay: Inhibition of LPS binding to TLR4 in IFNgamma-stimulated mouse RAW264.7 cells assessed as reduction in nitric oxide production pretreated for 2 hrs followed by LPS/IFNgamma stimulation and measured after 24 hrs; assay type: cell-based

Compound | inhibition [1] | inhibition [2]
CC1(C)[C@@H](O)CC[C@]2(C)[C@H]3C(=O)C=C4[C@@H]5C[C@@](C)(C(=O)O)CC[C@]5(C)CC[C@@]4(C)[C@]3(C)CC[C@@H]12 | inactive | 
CC1(C)CC[C@]2(C)CC[C@]3(C(=O)O)C(=CC[C@@H]4[C@@]5(C)CCC(=O)C(C)(C)[C@@H]5CC[C@]43C)[C@@H]2C1 | inactive | 
CC1(C)CC[C@]2(C(=O)O)CC[C@]3(C)C(=CC[C@@H]4[C@@]5(C)CC[C@H](O)C(C)(C)[C@@H]5CC[C@]43C)[C@@H]2C1 | inactive | 
C[C@H]1[C@H](C)CC[C@]2(C(=O)O)CC[C@]3(C)C(=CC[C@@H]4[C@@]5(C)CC[C@H](O)C(C)(C)[C@@H]5CC[C@]43C)[C@H]12 |  | Dose-dependent effect
C=C(C)[C@@H]1CC[C@]2(C(=O)O)CC[C@]3(C)[C@H](CC[C@@H]4[C@@]5(C)CC[C@H](O)C(C)(C)[C@@H]5CC[C@]43C)[C@@H]12 | inactive | 
